# Measurements taken from article PMC10855341, “Inhibition of Apoptosis in a Model of Ischemic Stroke Leads to Enhanced Cell Survival, Endogenous Neural Precursor Cell Activation and Improved Functional Outcomes” (International Journal of Molecular Sciences, 2024).
# Test system: neural precursor cells (NPCs) from SVZ neurospheres
# Assay: In vitro NPC cell viability with cisplatin (DAPI+ counts)
# Assay type: cell-based, adult mice (C57BL/6)
# Settings: 20 µM cisplatin alone, 8 h; mean ± SEM, n = 3 independent experiments
# Description: NSC neurospheres were obtained from control […] C57BL/6 periventricular dissections, as described above. Neurospheres were collected and mechanically disassociated into single cells and plated in 96-well plates coated with 4% Matrigel (Corning 354234, Corning, NY, USA) at a density of 20,000 cells per well in 100 µL of SFM with […] epidermal growth factor (GIBCO, PMG8041, Waltham, MA, USA), […] basic fibroblast growth factor (GIBCO, PHG0266, Waltham, MA, USA) and 2 µg/mL heparin (Sigma-Aldrich, H3149, St. Louis, MO, USA) (referred to as growth factors). One day later, the media was removed and replaced with fresh SFM, growth factors, 20 µM cisplatin (Sigma-Aldrich, P4394, St. Louis, MO, USA) and 10 µM NWL283 (New World Laboratories, Laval, QC, Canada) in sterile PBS. The vehicle group received media containing SFM, growth factors and PBS.
# To assess cell viability at 2 h and 8 h, cells were fixed with 4% PFA for 15 min and washed three times for 5 min in PBS. Cells were incubated for 10 min with 1:10,000 DAPI (Invitrogen, D130, Waltham, MA, USA), then washed three times for 5 min in PBS and imaged on an Axio Observer Zeiss microscope. DAPI cells were counted using ImageJ (https://imagej.net/ij/) analyze particle detection and then manually confirmed. Data were collected from three independent experiments.
smiles,measurement,value
N.N.[Cl][Pt][Cl] [cisplatin],"cell survival, DAPI+ cells",49.09 ± 7.28 DAPI+ cells
